For assay [1], the system named is Enterococcus faecium. The assay can be described thus: Minimum inhibitory concentration against vancomycin-A Enterococcus faecium in the presence of 30% bovine serum (n=1) (range = 0.5-16mg/l). It is filed as functional.
Assay [2] deals with Enterococcus faecalis. The assay can be described thus: Minimum inhibitory concentration against vancomycin-sensitive Enterococcus faecalis in the presence of 30% bovine serum (n=3) (range = <0.125-0.25). The class given is functional.
Assay [3] relates to Staphylococcus epidermidis. Put plainly: Minimum inhibitory concentration against methicillin-sensitive Staphylococcus epidermidis in the presence of 30% bovine serum. The class given is functional.
Assay [4] relates to Staphylococcus haemolyticus. Put plainly: Minimum inhibitory concentration against Staphylococcus haemolyticus in the presence of 30% bovine serum. The class given is functional.
For assay [5], the system named is Staphylococcus epidermidis. The assay can be described thus: Minimum inhibitory concentration against methicillin-resistant Staphylococcus epidermidis in the presence of 30% bovine serum. The class given is functional.
In assay [6] the test system is Enterococcus faecium. Put plainly: Minimum inhibitory concentration against vancomycin-sensitive Enterococcus faecium in the presence of 30% bovine serum(n=1). It is filed as functional.
For assay [7], the system named is Staphylococcus aureus. Put plainly: Minimum inhibitory concentration against methicillin-resistant Staphylococcus aureus.
Assay [8] has as its system Staphylococcus aureus. The assay can be described thus: Minimum inhibitory concentration against methicillin-sensitive Staphylococcus aureus.
Assay [9] deals with Enterococcus faecalis. The assay can be described thus: Minimum inhibitory concentration against vancomycin-A Enterococcus faecalis (n=4) (range = 0.25-8mg/L).
Assay [10] has as its system Enterococcus faecalis. The assay can be described thus: Minimum inhibitory concentration against vancomycin-A Enterococcus faecalis in the presence of 30% bovine serum(n=4) (range = 128>128 mg/L). It is filed as functional.
Assay [11] deals with Enterococcus faecium. Put plainly: Minimum inhibitory concentration against vancomycin-A Enterococcus faecium in the presence of 30% bovine serum (n=1). It is filed as functional.
Assay [12] concerns Enterococcus faecalis. The assay can be described thus: Minimum inhibitory concentration against vancomycin-sensitive Enterococcus faecalis in the presence of 30% bovine serum(n=3). It is filed as functional.
Assay [13] deals with Enterococcus faecium. Put plainly: Minimum inhibitory concentration against vancomycin-A Enterococcus faecium in the presence of 30% bovine serum (n=1) (range = 2-128mg/L). The class given is functional.
The subject of assay [14] is Enterococcus faecalis. The assay can be described thus: Minimum inhibitory concentration against vancomycin-A Enterococcus faecalis (n=4) (range = 4-128mg/L).
For assay [15], the system named is Enterococcus faecalis. The assay can be described thus: Minimum inhibitory concentration against vancomycin-sensitive Enterococcus faecalis in the presence of 30% bovine serum (n=3) (range = 8-4). The class given is functional.
For assay [16], the system named is Enterococcus faecium. Put plainly: Minimum inhibitory concentration against vancomycin-A Enterococcus faecium in the presence of 30% bovine serum in the presence of 30% bovine serum (n=1). It is filed as functional.
In assay [17] the test system is Enterococcus faecalis. Put plainly: Minimum inhibitory concentration against vancomycin-A Enterococcus faecalis in the presence of 30% bovine serum (n=4). It is filed as functional.
The subject of assay [18] is Enterococcus faecium. The assay can be described thus: Minimum inhibitory concentration against vancomycin-sensitive Enterococcus faecium in the presence of 30% bovine serum (n=1). It is filed as functional.
The subject of assay [19] is Enterococcus faecalis. The assay can be described thus: Minimum inhibitory concentration against vancomycin-A Enterococcus faecalis in the presence of 30% bovine serum(n=4) (range = 64-128mg/L). It is filed as functional.
Assay [20] relates to Enterococcus faecium. Put plainly: Minimum inhibitory concentration against vancomycin-A Enterococcus faecium in the presence of 30% bovine serum (n=1) (range = 64>128mg/L). The class given is functional.
For assay [21], the system named is Enterococcus faecalis. The assay can be described thus: Minimum inhibitory concentration against vancomycin-sensitive Enterococcus faecalis in the presence of 30% bovine serum(n=3)(range = 0.5-1 mg/l). It is filed as functional.
Assay [22] concerns Enterococcus faecium. The assay can be described thus: Minimum inhibitory concentration against vancomycin-A Enterococcus faecium in the presence of 30% bovine serum (n=1) (range = 4>128mg/L). It is filed as functional.
For assay [23], the system named is Enterococcus faecalis. The assay can be described thus: Minimum inhibitory concentration against vancomycin-sensitive Enterococcus faecalis in the presence of 30% bovine serum(n=3)(range = 0.25-0.5mg/l). It is filed as functional.

≈ marks a conversion by molar mass, not a printed value.

Consider `CN(C)CCCNC(=O)C1O[C@@H](Oc2c3cc4cc2Oc2ccc(cc2Cl)[C@@H](O)C2NC(=O)[C@H](NC(=O)[C@@H]4NC(=O)[C@H]4NC(=O)[C@@H](Cc5ccc(cc5)O3)NC(=O)[C@H](N(C)Cc3ccc(C(=O)Oc5ccccc5)cc3)c3ccc(O)c(c3)Oc3cc(O)c(Cl)c4c3)c3ccc(O)c(c3)-c3c(O[C@H]4O[C@H](CO)[C@@H](O)[C@H](O)[C@@H]4O)cc(O)cc3[C@@H](C(=O)NCCCN(C)C)NC2=O)C(NCc2ccc(C(=O)Oc3ccccc3)cc2)[C@@H](O)C1O` (stereo not given in full), for which the MIC in assay [1] was greater than 16 mg/L; in assay [2] it was 0.25 mg/L; in [3], 0.25 mg/L; in [4], 2 mg/L; in assay [5] it was 2 mg/L; in assay [6], 0.5 mg/L. The minimum inhibitory concentration (MIC) in assay [7] and in assay [8] was 1 mg/L (≈ 0.467 µM) each time.
`CCCCc1ccc(CNC2[C@H](Oc3c4cc5cc3Oc3ccc(cc3Cl)[C@@H](O)C3NC(=O)[C@H](NC(=O)[C@@H]5NC(=O)[C@H]5NC(=O)[C@@H](Cc6ccc(cc6)O4)NC(=O)[C@H](N(C)Cc4ccc(CCCC)cc4)c4ccc(O)c(c4)Oc4cc(O)c(Cl)c5c4)c4ccc(O)c(c4)-c4c(O[C@H]5O[C@H](CO)[C@@H](O)[C@H](O)[C@@H]5O)cc(O)cc4[C@@H](C(=O)NCCCN(C)C)NC3=O)OC(C(=O)NCCCN(C)C)C(O)[C@@H]2O)cc1` (stereo not given in full): the MIC in [1] was 16 mg/L; in [2], less than 0.125 mg/L; in assay [3] it was 0.25 mg/L; in assay [4] it was 2 mg/L; in assay [5] it was 2 mg/L; in [6] it was 0.5 mg/L. The values for the MIC in [7], in assay [8] and in assay [9] were 2 mg/L (≈ 0.995 µM), 1 mg/L (≈ 0.497 µM) and 8 mg/L (≈ 3.98 µM), respectively.
On to `CN[C@H]1C(=O)N[C@@H]2Cc3ccc(cc3)Oc3cc4cc(c3O[C@@H]3OC(C(=O)NCCCN(C)C)C(O)[C@H](O)C3N)Oc3ccc(cc3Cl)[C@@H](O)C3NC(=O)[C@H](NC(=O)[C@@H]4NC(=O)[C@@H](NC2=O)c2cc(cc(O)c2Cl)Oc2cc1ccc2O)c1ccc(O)c(c1)-c1c(O[C@H]2O[C@H](CO)[C@@H](O)[C@H](O)[C@@H]2O)cc(O)cc1[C@@H](C(=O)NCCCN(C)C)NC3=O` (stereo not given in full), for which the minimal inhibitory concentration (MIC) in assay [10] is 128 mg/L; in assay [11], greater than 128 mg/L; in assay [3] it was 1 mg/L; in assay [4] it was 0.05 mg/L; in [6], 1 mg/L; in assay [12], 1 mg/L. Moreover, the results for the MIC in [7] and in [8] were 2 mg/L (≈ 1.16 µM) and 1 mg/L (≈ 0.582 µM), respectively.
For the molecule `CN(Cc1ccc2ccccc2c1)[C@H]1C(=O)N[C@@H]2Cc3ccc(cc3)Oc3cc4cc(c3O[C@@H]3OC(C(=O)O)C(O)[C@H](O)C3NCc3ccc5ccccc5c3)Oc3ccc(cc3Cl)[C@@H](O)C3NC(=O)[C@H](NC(=O)[C@@H]4NC(=O)[C@@H](NC2=O)c2cc(cc(O)c2Cl)Oc2cc1ccc2O)c1ccc(O)c(c1)-c1c(O[C@H]2O[C@H](CO)[C@@H](O)[C@H](O)[C@@H]2O)cc(O)cc1[C@@H](C(=O)O)NC3=O` (stereo not given in full), the minimal inhibitory concentration (MIC) is greater than 128 mg/L in assay [13]; 2 mg/L in assay [3]; 16 mg/L in assay [4]; 16 mg/L in assay [5]; 2 mg/L in assay [6]; less than 0.125 mg/L in assay [12]. Further, the MIC in assay [7] came to 1 mg/L (≈ 0.546 µM); in assay [8], 2 mg/L (≈ 1.09 µM); in assay [14], 128 mg/L (≈ 69.9 µM).
On to `CN[C@H]1C(=O)N[C@@H]2Cc3ccc(cc3)Oc3cc4cc(c3O[C@@H]3OC(C(=O)O)C(O)[C@H](O)C3N)Oc3ccc(cc3Cl)[C@@H](O)C3NC(=O)[C@H](NC(=O)[C@@H]4NC(=O)[C@@H](NC2=O)c2cc(cc(O)c2Cl)Oc2cc1ccc2O)c1ccc(O)c(c1)-c1c(O[C@H]2O[C@H](CO)[C@@H](O)[C@H](O)[C@@H]2O)cc(O)cc1[C@@H](C(=O)O)NC3=O` (stereo not given in full), for which the minimum inhibitory concentration (MIC) in assay [15] was 8 mg/L; in assay [16] it was greater than 128 mg/L; in assay [17] it was greater than 128 mg/L; in [18] it was 8 mg/L; in assay [7] it was 16 mg/L (≈ 10.3 µM); in [8], 16 mg/L (≈ 10.3 µM).
As for `CCCCc1ccc(CNC2[C@H](Oc3c4cc5cc3Oc3ccc(cc3Cl)[C@@H](O)C3NC(=O)[C@H](NC(=O)[C@@H]5NC(=O)[C@H]5NC(=O)[C@@H](Cc6ccc(cc6)O4)NC(=O)[C@H](NC)c4ccc(O)c(c4)Oc4cc(O)c(Cl)c5c4)c4ccc(O)c(c4)-c4c(O[C@H]5O[C@H](CO)[C@@H](O)[C@H](O)[C@@H]5O)cc(O)cc4[C@@H](C(=O)O)NC3=O)OC(C(=O)O)C(O)[C@@H]2O)cc1` (stereo not given in full), the minimal inhibitory concentration (MIC) in assay [19] was 128 mg/L; in assay [20], greater than 128 mg/L; in assay [3] it was 0.25 mg/L; in assay [4], 16 mg/L; in assay [5], 4 mg/L; in [6], 2 mg/L. Also, the minimal inhibitory concentration (MIC) in [12] was less than 0.125 mg/L; in [7], 0.25 mg/L (≈ 0.147 µM); in assay [8], 0.25 mg/L (≈ 0.147 µM).
Consider `CN[C@H]1C(=O)N[C@@H]2Cc3ccc(cc3)Oc3cc4cc(c3O[C@@H]3OC(C(=O)O)C(O)[C@H](O)C3NCc3ccc5ccccc5c3)Oc3ccc(cc3Cl)[C@@H](O)C3NC(=O)[C@H](NC(=O)[C@@H]4NC(=O)[C@@H](NC2=O)c2cc(cc(O)c2Cl)Oc2cc1ccc2O)c1ccc(O)c(c1)-c1c(O[C@H]2O[C@H](CO)[C@@H](O)[C@H](O)[C@@H]2O)cc(O)cc1[C@@H](C(=O)O)NC3=O` (stereo not given in full), for which the minimal inhibitory concentration (MIC) in assay [20] is greater than 128 mg/L; in [21] it was 1 mg/L; in [3] it was 2 mg/L; in [4] it was 32 mg/L; in assay [17] it was 128 mg/L; in assay [5] it was 16 mg/L. Further, the minimal inhibitory concentration (MIC) in [6] was 2 mg/L; in assay [7] it was 1 mg/L (≈ 0.592 µM); in assay [8], 2 mg/L (≈ 1.18 µM).
Turning to `CCCCOc1ccc(CNC2[C@H](Oc3c4cc5cc3Oc3ccc(cc3Cl)[C@@H](O)C3NC(=O)[C@H](NC(=O)[C@@H]5NC(=O)[C@H]5NC(=O)[C@@H](Cc6ccc(cc6)O4)NC(=O)[C@H](NC)c4ccc(O)c(c4)Oc4cc(O)c(Cl)c5c4)c4ccc(O)c(c4)-c4c(O[C@H]5O[C@H](CO)[C@@H](O)[C@H](O)[C@@H]5O)cc(O)cc4[C@@H](C(=O)O)NC3=O)OC(C(=O)O)C(O)[C@@H]2O)cc1` (stereo not given in full), the MIC in assay [20] is greater than 128 mg/L; in [21] it was 1 mg/L; in assay [3] it was 1 mg/L; in [4], 32 mg/L; in assay [17], 128 mg/L; in assay [5], 16 mg/L. The MIC is 1 mg/L in [6], 1 mg/L (≈ 0.584 µM) in [7] and 1 mg/L (≈ 0.584 µM) in assay [8].
`CCCCc1ccc(CN(C)[C@H]2C(=O)N[C@@H]3Cc4ccc(cc4)Oc4cc5cc(c4O[C@@H]4OC(C(=O)O)C(O)[C@H](O)C4N)Oc4ccc(cc4Cl)[C@@H](O)C4NC(=O)[C@H](NC(=O)[C@@H]5NC(=O)[C@@H](NC3=O)c3cc(cc(O)c3Cl)Oc3cc2ccc3O)c2ccc(O)c(c2)-c2c(O[C@H]3O[C@H](CO)[C@@H](O)[C@H](O)[C@@H]3O)cc(O)cc2[C@@H](C(=O)O)NC4=O)cc1` (stereo not given in full): the minimum inhibitory concentration (MIC) was greater than 128 mg/L in [22]; 0.5 mg/L in assay [23]; 128 mg/L in assay [10]; 1 mg/L in assay [3]; 32 mg/L in assay [4]; 8 mg/L in assay [5]. Moreover, the MIC in assay [6] stood at 0.5 mg/L; in assay [7], 1 mg/L (≈ 0.589 µM); in assay [8] it was 1 mg/L (≈ 0.589 µM).
For `CN(Cc1ccc(-c2ccccc2)cc1)[C@H]1C(=O)N[C@@H]2Cc3ccc(cc3)Oc3cc4cc(c3O[C@@H]3OC(C(=O)O)C(O)[C@H](O)C3N)Oc3ccc(cc3Cl)[C@@H](O)C3NC(=O)[C@H](NC(=O)[C@@H]4NC(=O)[C@@H](NC2=O)c2cc(cc(O)c2Cl)Oc2cc1ccc2O)c1ccc(O)c(c1)-c1c(O[C@H]2O[C@H](CO)[C@@H](O)[C@H](O)[C@@H]2O)cc(O)cc1[C@@H](C(=O)O)NC3=O` (stereo not given in full), the MIC was greater than 128 mg/L in assay [22]; 0.5 mg/L in [23]; 128 mg/L in [10]; 2 mg/L in [3]; 32 mg/L in [4]; 16 mg/L in [5]. Further, the values for the MIC in assay [6], in assay [7] and in [8] were 0.5 mg/L, 1 mg/L (≈ 0.583 µM) and 1 mg/L (≈ 0.583 µM), respectively.

For orientation: MIC means the lowest concentration that inhibits growth of the organism.
